From paper PMC13503962, “Uncovering the genetic basis of fruit volatiles in Fragaria vesca through GWAS reveals FvJMT2 as a methyl benzoate biosynthesis gene with bioactivity against Drosophila suzukii” (Horticulture Research, 2026)

What follows are compounds tested on T1, FvJMT2 (FvJMT2^C275, functional full-length allele) (assay: radiochemical methyl transfer from […]-SAM, hexane extraction, scintillation counting; nonlinear Michaelis-Menten fit). Settings: co-substrate SAM (saturating); 50 mM Tris-HCl pH 7.5, 2.5 mM MgCl2, 5 mM DTT, 2.5 mM EDTA, 30 °C; read-out: Kinetic parameters / Km /.
T1 construct: full-length CDS (1173 nt, 390 residues) in pQE80L, N-terminal 6xHis tag, E. coli XL1-Blue, Ni-NTA purified; tag removal not mentioned
Assay type: biochemical, Fragaria vesca
O=C(O)c1ccccc1 [Benzoic acid] showed a Km of 577 µM.
O=C(O)/C=C/c1ccccc1 [Cinnamic acid] was tested, and the Km was 597 µM.
CC/C=C\C[C@H]1C(=O)CC[C@@H]1CC(=O)O [Jasmonic acid] gave a Km of 174 µM.
Compound O=C(O)c1ccccc1O [Salicylic acid] has a Km of 690 µM.
